Source: patent US6369109B1, “Betulinic acid and derivatives thereof useful for the treatment of neuroectodermal tumor” (Deutsches Krebsforschungszentrum Stiftung des Offentlichen …, priority 1998, dated 2002)
Residues, ends and D or L forms follow the SMILES beside them. *: point of attachment. Cbz = O=C(OCc1ccccc1)*; CH2F = FC*

Test system: isolated nuclei with mitochondria from SHEP cells
Experiment: Cell-free system of apoptosis: nuclear fragmentation of isolated nuclei
Format: biochemical, human
Conditions: for effect of inhibitor on betulinic acid-induced fragmentation of nuclei / effect of inhibitor on nuclear fragmentation by mitochondria from drug-pretreated cells / effect of inhibitor on DNA fragmentation by supernatants from betulinic acid-treated mitochondria: 50 μM bongkrekic acid or 60 μM zVAD-fmk; for effect of inhibitor on DNA fragmentation by supernatants from betulinic acid-treated mitochondria: FIG. 10B
Method: (§1) For determination of nuclear fragmentation, nuclei (10^3/μl) were incubated with mitochondria (1 μg/μl) in buffer D (10 mM HEPES, pH 7.4, 50 mM NaCl, 2 mM MgCl2, 5 mM EGTA, 1 mM DDT, 2 mM ATP, 10 mM phosphocreatine, 50 μg/ml creatine kinase, 10 μM cytochalasin B) for 2 h at 37° C. Nuclei were stained with propidium iodide ([…]) and analyzed by flow cytometry. For determination of caspase activation, cytosolic extracts (2 μg/μl) were incubated with mitochondria (1 μg/μl), cytochrome c (0.1-100 μM) or AIF-containing mitochondrial supernatant (0.5 μg/μl) in buffer D for 2 h at 37° C. Partially purified AIF (cytochrome c-free) was prepared as previously described (0.5 mg/ml, Susin et al., 1997, J. Exp. Med. 186, 5-37; Susin et al., 1996, J. Exp. Med. 184, 1331-41). Proteins were separated by 15% SDS-PAGE and Western blot analysis was performed as described above.
Mitochondria isolated from SHEP cells, transfected with bcl-2 or bcl-XL or a neomycin resistance vector only, were incubated for 6 h with nuclei and 0.1-10 μg/ml betulinic acid (FIG. 8A) or 5 mM atractyloside (FIG. 8B) in the presence or absence of 50 μM bongkrekic acid or 60 μMZ-VAD-fnk. Nuclei incubated with either mitochondria from vector only cells or with betulinic acid were used as control. Nuclear apoptosis was determined by FACS analysis of propidium iodide stained DNA content.
SHEP cells transfected with bcl-2 or bcl-XL or a neomycin resistance vector only were treated with 10 μg/ml betulinic acid or 5 mM atractyloside for 6-24 h (FIG. 8C). Mitochondria were isolated and incubated with nuclei in the presence or absence of 50 μM bongkrekic acid or 60 μMZ-VAD-fmk. Nuclei incubated with either mitochondria front vector only cells or with betulinic acid were used as control. Nuclear apoptosis was determined by FACS analysis of propidium iodide stained DNA content.
Mitochondria isolated from SHEP cells transfected with bcl-2, Bcl-XL or a neomycin resistance vector only were treated with 10 μg/ml betulinic acid or 5 mM atractyloside for 0.5 h in the presence or absence of 50 μM bongkrekic acid or 60 μM zVAD-fmk. Mitochondrial supernatants obtained by high speed centrifugation were incubated with nuclei for 2 h at 37° C. Nuclei incubated with supernatants of untreated mitochondria were used as control.. Nuclear apoptosis was determined by FACS analysis of propidium iodide stained DNA content.
as §1, with “cytometry (Susin et al., 1997 Exp. Cell Res. 236:397-403).” for “cytometry.”, “(10” for “(0.1-100”, “C.” for “C. Partially purified AIF (cytochrome c-free) was prepared as previously described (0.5 mg/ml, Susin et al., 1997, J. Exp. Med. 186, 5-37; Susin et al., 1996, J. Exp. Med. 184, 1331-41).”, “before.” for “above.”
SHEP cells transfected with Bcl-2 or BCl-XL or a neomycin resistance vector only (Neo) were treated with 0.5 μg/ml Doxorubicin or 10 μg/ml Betulinic acid for 48 h (A) or 24 h (B and C). Cells transfected with a neomycin resistance vector only (Neo) were treated in the presence or absence of 50 μm BA or 60 μm zVAD-fmk. Nuclear apoptosis was determined by FACS analysis or propidium iodide-stained DNA content in intact cells (A) or in a CFS incubating isolated nuclei with mitochondria from cells treated with Doxo or betulinic acid (C). ΔΨm was determined by staining cells with the potential-sensitive fluorochrome DiOC6(3) (B).

Row | Structure (SMILES) | effect of inhibitor on betulinic acid-induced fragmentation of nuclei (FIG. 8A) | effect of inhibitor on nuclear fragmentation by mitochondria from drug-pretreated cells (FIG. 8C, 12C) | effect of inhibitor on DNA fragmentation by supernatants from betulinic acid-treated mitochondria | nuclear fragmentation by mitochondria isolated from drug-pretreated cells (10 μg/ml betulinic acid or 0.5 μg/ml doxorubicin, FIG. 8C, 12C) | nuclear DNA fragmentation, mitochondria plus nuclei plus drug (Neo control mitochondria, 0.1-10 μg/ml betulinic acid or 5 mM atractyloside, 6 h, FIG. 8A, 8B)
1 | CO[C@H](C/C=C\C=C\CC/C=C/C[C@H](C)/C=C/C(=C\C(=O)O)CC(=O)O)/C(C)=C\C=C(/C)C(=O)O [bongkrekic acid] | inhibited | again blocked | also blocked | – | –
2 | COC(=O)C[C@H](NC(=O)[C@H](C)NC(=O)[C@@H](NC(=O)OCc1ccccc1)C(C)C)C(=O)CF [zVAD-fmk, benzyloxycarbonyl-Val-Ala-Asp-Fluoromethylketone] (Cbz-Val-Ala-Asp(OMe)-CH2F) | inhibited | again blocked | also blocked | – | –
3 | COc1cccc2c1C(=O)c1c(O)c3c(c(O)c1C2=O)C[C@@](O)(C(=O)CO)C[C@@H]3O[C@H]1C[C@H](N)[C@H](O)[C@H](C)O1 [doxorubicin] | – | – | – | induced nuclear DNA fragmentation | No DNA fragmentation was observed
